Results from PubChem BioAssay (NCI).
Several values for one entry are separate records, joined by “and”; a condition that tells them apart may be missing. Equal values may be shown once.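 How tested: cells in 96-well plates exposed to compound for 48 hours at five concentrations. GI50 is the concentration that inhibits growth by half. TGI marks complete inhibition of growth.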 Where a SMILES comes first, the peptide text is derived from it. [ ]: non-standard residue; d: D form. The star is where a group is joined. ξ: configuration not given here. NMeN = CN[C@@H](CC(N)=O)C(=O)O; NMeV = CN[C@H](C(=O)O)C(C)C; ξNMeV = CNC(C(=O)O)C(C)C; Boc = CC(C)(C)OC(=O)*; ξNMeA = CNC(C)C(=O)O

Experiments:
Experiment in all cases: NCI-60 cell line screen, 48 h
786-0 renal = system: 786-0 renal
HCT-15 colon = system: HCT-15 colon
HL-60(TB) leukemia = system: HL-60(TB) leukemia
A549 NSCLC = system: A549 NSCLC
OVCAR-4 ovarian = system: OVCAR-4 ovarian
NCI-H460 lung = system: NCI-H460 lung
LOX IMVI melanoma = system: LOX IMVI melanoma
RPMI-8226 leukemia = system: RPMI-8226 leukemia
A498 renal = system: A498 renal
TK-10 renal = system: TK-10 renal

Structure (SMILES)	GI50 (786-0 renal) [µM]	TGI (786-0 renal) [µM]	GI50 (HCT-15 colon) [µM]	TGI (HCT-15 colon) [µM]	GI50 (HL-60(TB) leukemia) [µM]	TGI (HL-60(TB) leukemia)	GI50 (A549 NSCLC) [µM]	TGI (A549 NSCLC)	GI50 (OVCAR-4 ovarian) [µM]	TGI (OVCAR-4 ovarian) [µM]	GI50 (NCI-H460 lung) [µM]	TGI (NCI-H460 lung)	GI50 (LOX IMVI melanoma) [µM]	TGI (LOX IMVI melanoma)	GI50 (RPMI-8226 leukemia) [µM]	TGI (RPMI-8226 leukemia) [µM]	TGI (A498 renal) [µM]	TGI (TK-10 renal) [µM]	GI50 (A498 renal) [µM]	GI50 (TK-10 renal) [µM]
CC[O-].CC[O-].O=C1C(c2ccccc2)=C([O-])c2ccccc21.O=C1C(c2ccccc2)=C([O-])c2ccccc21.[Ti+4]	> 100	> 100	> 100	> 100	> 100	> 100 µM	> 100	> 100 µM	> 100	> 100	> 100	> 100 µM	> 100	> 100 µM	30.3	99.5	–	–	–	–
c1ccc2c(c1)-c1ccccc1C2N1CC2CCC(CC2)C1	–	> 100	–	40	–	11.2 µM	–	> 100 µM	–	> 100	–	52.2 µM	–	40.5 µM	–	46	40.1	> 100	–	–
COC(=O)C(C)N(C)C(=O)[C@H](CC(N)=O)N(C)C(=O)[C@@H]1CCCN1C(=O)[C@H](C(C)C)N(C)C(=O)C(C(C)C)N(C)C(=O)[C@@H](NC(=O)OC(C)(C)C)C(C)C (stereo not given in full) (Boc-V[ξNMeV][NMeV]P[NMeN][ξNMeA]-OMe)	57	> 100	–	> 100	> 100	50 µM and > 100 µM	> 100	50 µM and > 100 µM	–	> 100	17.9	> 50 µM and 32.7 µM	13.5	50 µM and 27 µM	–	> 100	> 100	> 100	> 100	> 100
CCC[CH2][Sn]([CH2]CCC)([O]C(=O)C(N)CSC)[O]C(=O)C(N)CSC (stereo not given)	8.14	21.8	11.6	25.4	–	–	27.7	> 79.7 µM	13	26.1	29.7	90.1 µM	7.17	26.3 µM	2.16	7.58	–	21.5	3.91	9.03
COc1cccc(-c2nc3sccn3c2-c2ccnc(NCCNS(=O)(=O)c3ccccc3)c2)c1	4	> 100	2.55	> 100	1.71	5.56 µM	2.68	> 100 µM	2.09	> 100	3.47	> 100 µM	3.01	84.1 µM	1.05	3.65	–	57.2	–	3.58
O=c1ccnc2c1ccc1[nH]cccc12	–	> 100	–	> 100	–	> 100 µM	–	> 100 µM	–	> 100	–	> 100 µM	–	> 100 µM	–	–	> 100	> 100	–	–
Cc1nc2cc(N)c(F)cc2[nH]1	–	> 100	–	–	–	> 100 µM	–	> 100 µM	–	> 100	–	> 100 µM	–	> 100 µM	–	–	> 100	> 100	–	–
CCOc1ccc(Nc2nc(-c3ccc4c(c3)NC(=O)CO4)cs2)cc1	14.3	> 100	4.74	> 100	2.14	8.17 µM	5.14	> 100 µM	3.51	> 100	4.37	> 100 µM	5.33	> 100 µM	14.9	> 100	55.4	> 100	13.6	9.98
O=S(=O)(c1ccc(N=C2NN=C(c3c[nH]c4ccccc34)CS2)cc1)N1CCOCC1	2.55	42.3	8.06	> 100	2.25	> 100 µM	8.68	> 100 µM	15.6	> 100	5.04	> 100 µM	11.2	> 100 µM	3.72	76.9	> 100	> 100	15.7	26.3
CN1CCCCCC(=N\O)/C(=N/O)CCCCC1	–	> 100	–	> 100	–	> 100 µM	–	> 100 µM	–	–	–	> 100 µM	–	> 100 µM	–	–	> 100	> 100	–	–
Cc1ccc(/C=C/C(=O)c2sc(-c3cccnc3)nc2C)cc1	–	> 100	–	> 100	–	> 100 µM	–	> 100 µM	–	–	–	> 100 µM	–	> 100 µM	–	> 100	> 100	> 100	–	–
NC(=N\N=C/c1cccc([N+](=O)[O-])c1)/C(N)=N\N=C/c1cccc([N+](=O)[O-])c1	> 100	> 100	> 100	> 100	> 100	> 100 µM	–	–	–	–	–	–	> 100	> 100 µM	> 100	> 100	> 100	> 100	> 100	> 100
CCCN1CCN(c2ccc3nc(-c4ccc5nc(-c6cc(OC)ccc6OC)[nH]c5c4)[nH]c3c2)CC1	1.93	3.41	1.74	3.36	3.12	8.91 µM	1.85	3.64 µM	1.98	3.85	1.91	3.56 µM	1.73	3.26 µM	2.17	4.79	30.4	–	15.6	–
O=C([O][Hg][CH2]C1COCC([CH2][Hg][O]C(=O)c2ccccc2)O1)c1ccccc1 (stereo not given)	16.8	30.5	–	–	3.84	13.9 µM	12.6	27.2 µM	14.4	49.6	20	42.5 µM	1.73	4.2 µM	2.75	7.66	31.2	31.5	17.1	6.33
O=C1c2ccccc2C2(O)NC(=S)N(c3ccccc3)C12O (stereo not given)	–	> 100	–	> 100	–	> 100 µM	–	> 100 µM	–	> 100	–	> 100 µM	–	> 100 µM	–	> 100	–	> 100	–	–
Nc1ncn(C2C=C(CO)C(O)C2O)c(=O)n1 (stereo not given)	–	> 100	–	> 100	–	> 100 µM	–	> 100 µM	–	> 100	–	> 100 µM	–	–	–	> 100	> 100	> 100	–	–
O=C(Nc1cc[c]([Sb](=[O])([OH])[OH])cc1)c1ccccc1	> 100	> 100	> 100	> 100	–	–	> 100	> 100 µM	> 100	> 100	> 100	> 100 µM	> 100	> 100 µM	–	–	> 100	> 100	> 100	> 100
COc1cc2c(Oc3ccc4[nH]c(C)cc4c3F)ccnc2cc1OCC1(N)CC1	1.02	3.46	0.854	13.5	0.382	1.95 µM	–	–	4.22	> 100	0.908	6.84 µM	1.26	3.2 µM	2.1	5.95	19.7	26.2	2.2	7.89

Structure (SMILES)	GI50 (786-0 renal) [µM]	TGI (786-0 renal) [µM]	GI50 (HCT-15 colon) [µM]	TGI (HCT-15 colon) [µM]	GI50 (HL-60(TB) leukemia) [µM]	TGI (HL-60(TB) leukemia)	GI50 (A549 NSCLC) [µM]	TGI (A549 NSCLC)	GI50 (OVCAR-4 ovarian) [µM]	TGI (OVCAR-4 ovarian) [µM]	GI50 (NCI-H460 lung) [µM]	TGI (NCI-H460 lung)	GI50 (LOX IMVI melanoma) [µM]	TGI (LOX IMVI melanoma)	GI50 (RPMI-8226 leukemia) [µM]	TGI (RPMI-8226 leukemia) [µM]	TGI (A498 renal) [µM]	TGI (TK-10 renal) [µM]	GI50 (A498 renal) [µM]	GI50 (TK-10 renal) [µM]
CN(C)CC/C(=N\Nc1ccccc1)c1ccccc1	–	51.2	–	27.6	–	–	–	> 100 µM	–	32.4	–	–	–	–	–	> 100	–	41.2	–	–
CSc1nc(NC(=O)O)c(N(C(C)=O)C(=O)O)c(=O)n1C	–	> 100	–	> 100	–	> 100 µM	–	> 100 µM	–	> 100	–	> 100 µM	–	> 100 µM	–	> 100	> 100	–	–	–
O=C1NC(=S)NC(=O)C1=Cc1cccc2cc3ccccc3cc12	–	3.42	–	4.07	–	5.67 µM	–	12.7 µM	–	4.75	–	4.82 µM	–	4.49 µM	–	–	3.63	3.48	–	–
CCn1c(O)c(C=N)c(=O)n(CC)c1=O	–	> 100	–	> 100	–	> 100 µM	–	> 100 µM	–	> 100	–	> 100 µM	–	> 100 µM	–	–	> 100	> 100	–	–
O=C1NC2CCC(C2)C1c1ccccc1 (stereo not given)	–	> 100	–	–	–	> 100 µM	–	> 100 µM	–	> 100	–	> 100 µM	–	> 100 µM	–	> 100	> 100	> 100	–	–
Cc1cc2cc3c(C)cc(=O)oc3c(C)c2o1	–	> 100	–	> 100	–	> 100 µM	–	> 100 µM	–	> 100	–	> 100 µM	–	> 100 µM	–	> 100	> 100	–	–	–
COC(=O)C(=O)C(C#N)c1ccc(CC#N)cc1 (stereo not given)	–	> 100	–	> 100	–	> 100 µM	–	> 100 µM	–	–	–	–	–	> 100 µM	–	> 100	–	> 100	–	–
CC/C(=C(/CC)c1ccc(O)cc1)c1ccc([O-])cc1.CC/C(=C(/CC)c1ccc(O)cc1)c1ccc([O-])cc1.O=C([CH-]C(=O)c1ccccc1)c1ccccc1.O=C([CH-]C(=O)c1ccccc1)c1ccccc1.[Ti+4]	13.7	33.1	6.8	32.3	–	–	7.99	32.3 µM	24.8	> 100	13.1	25.8 µM	12.5	27.5 µM	30.5	> 100	–	76.9	–	30.2
Cc1cc(C)nc(NS(=O)(=O)c2ccc(Nc3c4ccc(Cl)cc4nc4c(C(=O)Nc5ccc(S(=O)(=O)N=C(N)N)cc5)cccc34)cc2)n1	–	> 100	–	> 100	–	–	–	–	–	> 100	–	> 100 µM	–	> 100 µM	–	> 100	> 100	> 100	–	–
O=c1[nH]c2c3ccccc3ccc2c2cc3c(cc12)OCO3	–	> 100	–	> 100	–	–	–	> 100 µM	–	> 100	–	> 100 µM	–	> 100 µM	–	> 100	–	> 100	–	–
CCCCc1ccc(-n2c3nc(=O)n(C)c(=O)c-3nc3ccccc32)cc1	–	32.1	–	18.3	–	32.5 µM	–	22 µM	–	22	–	16.6 µM	–	–	–	57	32.7	27.5	–	–
C=CCN(CC=C)C(=O)c1cc(C)nc2c1c(=O)n(-c1ccccc1)c(=O)n2CC(O)CN1CCN(c2ncccn2)CC1 (stereo not given)	> 100	> 100	> 100	> 100	> 100	> 100 µM	–	–	80.3	> 100	26.7	> 100 µM	> 100	> 100 µM	> 100	> 100	> 100	> 100	> 100	> 100
CC(C)CNc1nc(-c2ccccc2)nc2ccccc12	14.4	27.5	> 100	> 100	–	–	15.1	31.8 µM	13.5	30	17.2	41.1 µM	14.7	28.3 µM	4.31	20.3	29.5	26.6	15.1	13.6
Cc1ccc(NC(=O)CCC/C(CC(=O)c2ccc(Br)cc2)=N/NC(=O)CC#N)cc1	–	> 100	–	–	–	> 100 µM	–	> 100 µM	–	> 100	–	> 100 µM	–	> 100 µM	–	> 100	–	> 100	–	–
CC(C)C1CCC/C=C/C=C/C=C/C=C/C(OC2OC(C)C(O)C(N)C2O)CC2OC(O)(CC(O)CC(O)C(O)CCC(=O)O1)CC(O)C2C(=O)O (stereo not given)	–	> 52.5	–	> 52.5	–	> 52.5 µM	–	> 52.5 µM	–	–	–	–	–	–	–	> 52.5	> 52.5	–	–	–
COc1ccc(CNc2c3ccccc3nc3ccc(OC)cc23)cc1	2.02	4.55	2.27	6.18	2.15	4.73 µM	2.59	7.46 µM	2.94	10.5	2.46	6.41 µM	1.67	3.31 µM	–	–	3.33	13.9	1.69	3.77
CCOC(=O)C1=C(Nc2ccc(Cl)cc2Cl)OC/C1=N\NS(=O)(=O)c1ccc(C)cc1	–	> 100	–	> 100	–	> 100 µM	–	> 100 µM	–	> 100	–	> 100 µM	–	> 100 µM	–	–	> 100	> 100	–	–
